Source: ChEMBL document CHEMBL1201862, “PubChem BioAssay data set” (2004)
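Cultured in 96-well plates, cells were exposed to test compound for 48 hours across five concentrations. GI50: concentration for 50% inhibition of growth.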 Activity calls are given as the source filed them. No stated cut-off is given here; in the data, active = GI50 up to about 1.1 µM and inactive = higher.

Assays:
Experiment in all cases: NCI tumour cell line growth inhibition, 48 h
EKVX = test system: EKVX
UO-31 = test system: UO-31
KM12 = test system: KM12
SF-539 = test system: SF-539
NCI-H23 = test system: NCI-H23
HT-29 = test system: HT-29
ACHN = test system: ACHN
HCT-15 = test system: HCT-15
SK-OV-3 = test system: SK-OV-3
SR = test system: SR
NCI/ADR-RES = test system: NCI/ADR-RES
A549 = test system: A549
SF-268 = test system: SF-268
SK-MEL-5 = test system: SK-MEL-5
RPMI-8226 = test system: RPMI-8226
NCI-H522 = test system: NCI-H522
CCRF-CEM = test system: CCRF-CEM
SK-MEL-2 = test system: SK-MEL-2
Malme-3M = test system: Malme-3M
SNB-19 = test system: SNB-19
MDA-MB-231 = test system: MDA-MB-231
SF-295 = test system: SF-295
SK-MEL-28 = test system: SK-MEL-28
SN12C = test system: SN12C
SNB-75 = test system: SNB-75
T47D = test system: T47D
M14 = test system: M14
MDA-N = test system: MDA-N
UACC-257 = test system: UACC-257
U-251 = test system: U-251
786-0 = test system: 786-0
DU-145 = test system: DU-145
MOLT-4 = test system: MOLT-4
LOX IMVI = test system: LOX IMVI
MCF7 = test system: MCF7
IGROV-1 = test system: IGROV-1
HCT-116 = test system: HCT-116
Hs-578T = test system: Hs-578T
SW-620 = test system: SW-620
TK-10 = test system: TK-10
K562 = test system: K562
HOP-92 = test system: HOP-92
OVCAR-5 = test system: OVCAR-5
CAKI-1 = test system: CAKI-1
COLO 205 = test system: COLO 205
MDA-MB-435 = test system: MDA-MB-435
HCC 2998 = test system: HCC 2998
OVCAR-3 = test system: OVCAR-3
A498 = test system: A498
UACC-62 = test system: UACC-62
OVCAR-4 = test system: OVCAR-4
HOP-62 = test system: HOP-62
RXF 393 = test system: RXF 393
NCI-H226 = test system: NCI-H226
NCI-H460 = test system: NCI-H460
OVCAR-8 = test system: OVCAR-8
HL-60 = test system: HL-60
PC-3 = test system: PC-3

Measured: GI50

O=c1[nH]nc(-c2ccccc2)n1-c1cccc([N+](=O)[O-])c1
> 100 µM: HCT-15
inactive: EKVX > 100 µM | UO-31 38.5 µM | KM12 > 100 µM | SF-539 > 100 µM | NCI-H23 > 100 µM | HT-29 > 100 µM | ACHN > 100 µM | SK-OV-3 > 100 µM | SR > 100 µM | NCI/ADR-RES > 100 µM | A549 > 100 µM | SF-268 > 100 µM | SK-MEL-5 > 100 µM | RPMI-8226 > 100 µM | NCI-H522 > 100 µM | CCRF-CEM > 100 µM | SK-MEL-2 > 100 µM | Malme-3M > 100 µM | SNB-19 > 100 µM | MDA-MB-231 > 100 µM | SF-295 > 100 µM | SK-MEL-28 > 100 µM | SN12C > 100 µM | SNB-75 > 100 µM | T47D > 100 µM | M14 > 100 µM | MDA-N > 100 µM | UACC-257 > 100 µM | U-251 > 100 µM | 786-0 > 100 µM | DU-145 > 100 µM | MOLT-4 > 100 µM | LOX IMVI > 100 µM | MCF7 > 100 µM | IGROV-1 > 100 µM | HCT-116 > 100 µM | Hs-578T > 100 µM | SW-620 > 100 µM | TK-10 > 100 µM | K562 > 100 µM | HOP-92 > 100 µM | OVCAR-5 > 100 µM | CAKI-1 89.5 µM | COLO 205 > 100 µM | MDA-MB-435 > 100 µM | HCC 2998 > 100 µM | OVCAR-3 > 100 µM | A498 > 100 µM | UACC-62 > 100 µM | OVCAR-4 > 100 µM | HOP-62 > 100 µM | RXF 393 > 100 µM | NCI-H226 > 100 µM | NCI-H460 > 100 µM | OVCAR-8 > 100 µM

Cc1cc(C(F)(F)F)cc(-n2nc(NS(=O)(=O)c3cc(C)c(Cl)cc3S)nc2N)n1
39.5 µM: HCT-15
inactive: EKVX 55.6 µM | KM12 42.9 µM | SF-539 > 10 µM | HT-29 42 µM | ACHN 53.3 µM | SK-OV-3 81.7 µM | SR 23.4 µM | NCI/ADR-RES 30.8 µM | A549 36.6 µM | SF-268 92.9 µM | SK-MEL-5 37.1 µM | RPMI-8226 65.8 µM | NCI-H522 32 µM | HL-60 32.8 µM | CCRF-CEM 23.7 µM | SK-MEL-2 26.2 µM | Malme-3M > 100 µM | SNB-19 26.8 µM | MDA-MB-231 37.7 µM | SF-295 8.79 µM | SK-MEL-28 55.3 µM | SN12C 35.5 µM | SNB-75 > 100 µM | T47D 57.1 µM | M14 54.1 µM | MDA-N 52.8 µM | UACC-257 > 100 µM | U-251 42.2 µM | 786-0 44.6 µM | MOLT-4 24.3 µM | LOX IMVI 18.7 µM | MCF7 45.1 µM | IGROV-1 36.6 µM | HCT-116 33.7 µM | Hs-578T 41 µM | SW-620 > 100 µM | TK-10 > 100 µM | K562 39.7 µM | HOP-92 32.7 µM | PC-3 47.4 µM | CAKI-1 7.46 µM | COLO 205 > 100 µM | MDA-MB-435 41.4 µM | HCC 2998 34.8 µM | OVCAR-3 51.3 µM | A498 26 µM | UACC-62 29.5 µM | OVCAR-4 > 95.3 µM | HOP-62 23.3 µM | RXF 393 > 100 µM | NCI-H226 40.3 µM | NCI-H460 24.4 µM | OVCAR-8 45.4 µM

CCOC1CCC2C(CCC(/C=C/c3ccc(O)c4ncccc34)N2C)C1 (stereo not given)
inactive: EKVX 4.98 µM | UO-31 26.1 µM | KM12 17.4 µM | SF-539 3.67 µM | NCI-H23 10.3 µM | HT-29 7.03 µM | ACHN 32.7 µM | SR 3.21 µM | NCI/ADR-RES > 100 µM | A549 25.1 µM | SF-268 6.24 µM | SK-MEL-5 19.7 µM | RPMI-8226 25.4 µM | NCI-H522 1.99 µM | HL-60 3.84 µM | CCRF-CEM 4.65 µM | Malme-3M 31.6 µM | SNB-19 16 µM | SF-295 24 µM | SK-MEL-28 29.6 µM | SN12C 4.78 µM | T47D 9.86 µM | M14 15.4 µM | MDA-N 38.5 µM | U-251 15.4 µM | 786-0 6.44 µM | DU-145 10.3 µM | MOLT-4 3.72 µM | MCF7 4.23 µM | IGROV-1 11.4 µM | Hs-578T 15.2 µM | SW-620 7.59 µM | TK-10 33.2 µM | K562 4.6 µM | HOP-92 11.7 µM | OVCAR-5 33.2 µM | PC-3 8.75 µM | COLO 205 3.56 µM | HCC 2998 24.2 µM | UACC-62 8.89 µM | HOP-62 8.71 µM | NCI-H226 37.4 µM | NCI-H460 7.89 µM | OVCAR-8 3.53 µM
40.8 µM: HCT-15
